Experimental data: US9375013B2, “Herbicidal composition” (ISHIHARA SANGYO KAISHA, LTD., priority 2013, dated 2016)

Experiments:
Type in all cases: in vivo
[1] = tested on: field bindweed (Convolvulus arvensis L.); experiment: Test Example 5: pot soil treatment, growth inhibition of field bindweed; details: dose 30 g/ha, 22nd day after treatment, read-out: Growth inhibition rate (%) of field bindweed, Measured value
Text: (§1) On the 14th day after treatment, the state of growth of the summergrass was visually observed to determine the growth inhibition rate in accordance with the following evaluation standard. The growth inhibition rate (%) (measured value) and the growth inhibition rate (%) (calculated value) calculated by the Colby's formula are shown in Table 1. Growth inhibition rate (%)=0 (equivalent to the non-treated area) to 100 (complete kill) Upland field soil was put into a 1/160,000 ha pot, and seeds of field bindweed (Convolvulus arvensis L.) were sown. On the next day, predetermined amounts of flazasulfuron and hexazinone were diluted with water (in an amount corresponding to 300 L/ha), and applied for soil treatment by a small sprayer. On the 22nd day after treatment, the state of growth of the field bindweed was visually observed to determine the growth inhibition rate. The growth inhibition rate (%) (measured value) and the growth inhibition rate (%) calculated in the same manner as in Test Example 1 are shown in Table 5.

[2] = tested on: summergrass (Digitaria ciliaris (Retz.) Koeler); experiment: Test Example 1: pot soil treatment, growth inhibition of summergrass; details: dose 10 g/ha, 14th day after treatment, read-out: Growth inhibition rate (%) of summergrass, Measured value
Description: Upland field soil was put into a 1/160,000 ha pot, and seeds of summergrass (Digitaria ciliaris (Retz.) Koeler) were sown. On the next day, predetermined amounts of flazasulfuron and imazapic were diluted with water (in an amount corresponding to 300 L/ha), and applied for soil treatment by a small sprayer. On the 14th day after treatment, the state of growth of the summergrass was visually observed to determine the growth inhibition rate in accordance with the following evaluation standard. The growth inhibition rate (%) (measured value) and the growth inhibition rate (%) (calculated value) calculated by the Colby's formula are shown in Table 1. Growth inhibition rate (%)=0 (equivalent to the non-treated area) to 100 (complete kill)

[3] = tested on: ivy-leaved morningglory (Ipomoea hederacea (L.) Jacq.); experiment: Test Example 2: pot soil treatment, growth inhibition of ivy-leaved morningglory; details: 22nd day after treatment, read-out: Growth inhibition rate (%) of ivy-leaved morningglory, Measured value
Text: as §1, with “ivy-leaved morningglory (Ipomoea hederacea (L.) Jacq.)” for “field bindweed (Convolvulus arvensis L.)”, “ivy-leaved morningglory” for “field bindweed”, “2.” for “5.”

[4] = tested on: rostrate sesbania(Sesbania rostrata Bremek. & Oberm.); experiment: Test Example 7: pot soil treatment, growth inhibition of rostrate sesbania; details: 22nd day after treatment, read-out: Growth inhibition rate (%) of rostrate sesbania, Measured value
[5] = tested on: persian speedwell (Veronica persica Poir.); experiment: Test Example 8: pot soil treatment, growth inhibition of persian speedwell; details: 21st day after treatment, read-out: Growth inhibition rate (%) of persian speedwell, Measured value
[6] = tested on: persian speedwell (Veronica persica Poiret.); experiment: Test Example 10: pot soil treatment, growth inhibition of persian speedwell; details: dose 30 g/ha, 21st day after treatment, read-out: Growth inhibition rate (%) of persian speedwell, Measured value
[7] = tested on: wild oat (Avena fatua L.); experiment: Test Example 3: pot soil treatment, growth inhibition of wild oat; details: 22nd day after treatment, read-out: Growth inhibition rate (%) of wild oat, Measured value
Text: as §1, with “wild oat (Avena fatua” for “field bindweed (Convolvulus arvensis”, “flazasulfuron, mesotrione” for “flazasulfuron”, “imazapic” for “hexazinone”, “wild oat” for “field bindweed”, “3.” for “5.”

[8] = tested on: velvetleaf (Abutilon theophrasti MEDIC.); experiment: Test Example 13: pot soil treatment, growth inhibition of velvetleaf; details: dose 30 g/ha, 21st day after treatment, read-out: Growth inhibition rate (%) of velvetleaf, Measured value
[9] = tested on: shattercane (Sorghum bicolor (L.) Moench.); experiment: Test Example 6: pot soil treatment, growth inhibition of shattercane; details: dose 30 g/ha, 22nd day after treatment, read-out: Growth inhibition rate (%) of shattercane, Measured value
Text: On the 14th day after treatment, the state of growth of the summergrass was visually observed to determine the growth inhibition rate in accordance with the following evaluation standard. The growth inhibition rate (%) (measured value) and the growth inhibition rate (%) (calculated value) calculated by the Colby's formula are shown in Table 1. Growth inhibition rate (%)=0 (equivalent to the non-treated area) to 100 (complete kill)
Upland field soil was put into a 1/160,000 ha pot, and seeds of shattercane (Sorghum bicolor (L.) Moench.) were sown. On the next day, predetermined amounts of flazasulfuron and hexazinone were diluted with water (in an amount corresponding to 300 L/ha), and applied for soil treatment by a small sprayer.
On the 22nd day after treatment, the state of growth of the shattercane was visually observed to determine the growth inhibition rate. The growth inhibition rate (%) (measured value) and the growth inhibition rate (%) calculated in the same manner as in Test Example 1 are shown in Table 6.

Q: What does the source list for `COc1cc(OC)nc(NC(=O)NS(=O)(=O)c2ncccc2C(F)(F)F)n1` [Flazasulfuron, flazasulfuron]?
A: inhibition at 30 g/ha [1]: 0%; inhibition at 10 g/ha [2]: 15%; inhibition at 10 g/ha ([3]; dose 10 g/ha): 0%; inhibition at 30 g/ha ([3]; dose 30 g/ha): 0%; inhibition at 50 g/ha ([3]; dose 50 g/ha): 40%; inhibition at 50 g/ha [4]: 35%; inhibition at 50 g/ha [5]: 20%; inhibition at 30 g/ha [6]: 15%; inhibition at 30 g/ha ([7]; dose 30 g/ha): 40%; inhibition at 50 g/ha ([7]; dose 50 g/ha): 0%; inhibition at 30 g/ha [8]: 75%; inhibition at 30 g/ha [9]: 60%
